# Results as given in patent publication US20110092367A1, “Herbicidal Compositions Comprising 4-amino-3,6-dichloropyridine-2-carboxylic Acid” (BASF SE, priority 2008, published 2011).
# Assays:
# Assay type in all cases: in vivo
# Centauria cyanus = assay: Greenhouse trial, post-emergence: CENCY; conditions: post-emergence; for % activity 28 DAT: CENCY
# Procedure: (§1) The test plants have been seeded, separately for each species, in plastic containers in sandy loamy soil containing 5% organic matter.
# (§2) For the post emergence treatment, the plants were first grown to the 2 leaf station (GS 12). Here, the herbicidal compositions were suspended or emulsified in water as distribution medium and sprayed using finely distributing nozzels.
# (§3) The plants have been cultivated due to there individual requirements at 10-25° C. and 20-35° C. The plants were irrigated due to there necessity. […]
# (§4) The evaluation for the damage on undesired weeds caused by the chemical compositions was carried out using a scale from 0 to 100%, compared to the untreated control plants. Here, 0 means no damage and 100 means complete destruction of the plants.
# (§5) Calculation of expected activity of binary mixtures was done by using the Colby-Formula according to Example 1.
# Mercurialis annua = assay: Greenhouse trial, post-emergence: MERAN; conditions: for % activity 28 DAT: MERAN
# Procedure: as §1, §2, §3, §4, §5
# Capsella bursa-pasturis = assay: Greenhouse trial, post-emergence: CAPBP; conditions: post-emergence (Table 10)
# Procedure: as §1, §2, §3, §4, §5
# Papaver rhoeas [1] = assay: Greenhouse trial, post-emergence: PAPRH
# Procedure: as §1, §2, §3, §4, §5
# Lamium purpureum = assay: Greenhouse trial, post-emergence: LAMPU; conditions: for % activity 28 DAT: LAMPU
# Procedure: as §1, §2, §3, §4, §5
# Stellaria media [2] = assay: Greenhouse trial, post-emergence: STEME; conditions: flufenacet 60 g ai/ha solo, post-emergence
# Procedure: as §1, §2, §3, §4, §5
# Anthemis arvensis = assay: Field trial Example 2, combined application: ANTAR
# Procedure: (§6) Aminiopyralid was used as commercial aquaeous solution having an active ingredient concentration of 240 g/l (Milestone™). Metazachlor was used as a commercial suspension concentrate having an active ingredient concentration of 500 g/l (Butisan S®).
# as §4
# (§7) The value E, which is to be expected if the activity of the individual compounds is just additive, was calculated using the method of S. R. Colby (1967) “Calculating synergistic and antagonistic responses of herbicide combinations”, Weeds 15, p. 22 ff.
# (§8) The performance of aminopyralid, applied as an alone treatment at […] and 15 g ai/ha, and the performance of metazachlor, applied as an alone treatment at 375 and 500 g ai/ha, as well as the mixtures of the both compounds have been assessed in winter oilseed rape field trials. The trials have been conducted in Germany at two locations.
# (§9) Post emergence treatment was applied by means of fine distributed nozzels at the growth stage (GS/BBCH 11/12).
# Stellaria media [3] = assay: Field trial Example 2, combined application: STEME; conditions: Metazachlor 500 g ai/ha solo, 28 DAT
# Procedure: as §6, §4, §7, §8, §9
# Alopecurus myosuroides = assay: Field trial Example 2, combined application: ALOMY; conditions: Metazachlor 500 g ai/ha solo, 28 DAT
# Procedure: as §6, §4, §7, §8, §9
# Centaurea cyanus = assay: Field trial Example 2, combined application: CENCY; conditions: Metazachlor 375 g ai/ha solo, 78 DAT
# Procedure: as §6, §4, §7, §8, §9
# Matricaria chamomilla = assay: Greenhouse trial, post-emergence: MATCH; conditions: solo, 187 g ai/ha, greenhouse
# Procedure: as §1, §2
# The plants have been cultivated due to there individual requirements at 10-25° C. and 20-35° C. The plants were irrigated due to there necessity.
# In the following experiments, the herbicidal activity for the individual herbicide compounds (solo and mixture applications), the herbicidal succession was assessed 14 days after treatment (DAT).
# as §4, §5
# E=(X+Y+Z)−(X*Y+X*Z+Y*Z/100)+(X*Y*Z/1000)
# Tables 6 to 10 relate to the herbicidal activity, in greenhouse trials, of the individual actives and the combination in post-emergence application 14 DAT.
# Matricaria inodora = assay: Field trial Example 2, combined application: MATIN
# Procedure: as §6, §4, §7, §8, §9
# Papaver rhoeas [4] = assay: Field trial Example 2, combined application: PAPRH
# Procedure: as §6, §4, §7, §8, §9
# [5] = clopyralid 60 g ai/ha solo, post-emergence (Table 10)
# [6] = clopyralid 120 g ai/ha solo, post-emergence (Table 10)
# [7] = Metazachlor 375 g ai/ha solo, 29 DAT
# [8] = Metazachlor 500 g ai/ha solo, 29 DAT
# [9] = metazachlor 187 g ai/ha solo, post-emergence (Table 10)
# [10] = metazachlor 375 g ai/ha solo, post-emergence (Table 10)
# [11] = Metazachlor 375 g ai/ha solo, 28 DAT
# [12] = pethoxamid 600 g ai/ha solo, post-emergence
smiles,measurement,setting,value
"COC[C@H](C)N(C(=O)CCl)c1c(C)csc1C [DMTA-P, Dimethenamid-P]",% activity 28 DAT,Centauria cyanus; DMTA-P 125 g ai/ha solo,20%
same,% activity 28 DAT,"Mercurialis annua; DMTA-P 63 g ai/ha solo, post-emergence",15%
same,% activity 28 DAT,"Mercurialis annua; DMTA-P 125 g ai/ha solo, post-emergence",25%
O=C(O)c1nc(Cl)ccc1Cl [clopyralid],% activity 28 DAT,Capsella bursa-pasturis; clopyralid 120 g ai/ha solo,10%
same,% activity 28 DAT,Mercurialis annua; [5],15%
same,% activity 28 DAT,Papaver rhoeas [1]; [6],20%
same,% activity 28 DAT,Lamium purpureum; [5],15%
same,% activity 28 DAT,Lamium purpureum; [6],15%
CC(C)N(C(=O)COc1nnc(C(F)(F)F)s1)c1ccc(F)cc1 [flufenacet],% activity 28 DAT,Centauria cyanus; flufenacet 60 g ai/ha solo,0%
same,% activity 28 DAT,Centauria cyanus; flufenacet 120 g ai/ha solo,20%
same,% activity 28 DAT,Stellaria media [2],0%
same,% activity 28 DAT,"Lamium purpureum; flufenacet 60 g ai/ha solo, post-emergence",60%
same,% activity 28 DAT,"Lamium purpureum; flufenacet 120 g ai/ha solo, post-emergence",60%
Cc1cccc(C)c1N(Cn1cccn1)C(=O)CCl [metazachlor],% activity,Anthemis arvensis; [7],40%
same,% activity,Anthemis arvensis; [8],57%
same,% activity,"Anthemis arvensis; Metazachlor 500 g ai/ha solo, 78 DAT",60%
same,inhibition at 187 g/ha,"Centauria cyanus; 672 h, solo, 187 g ai/ha, greenhouse, 28 DAT",20%
same,% activity 28 DAT,Capsella bursa-pasturis; metazachlor 375 g ai/ha solo,25%
same,% activity,Stellaria media [3],88%
same,% activity 28 DAT,Mercurialis annua; [9],15%
same,inhibition at 187 g/ha,"Mercurialis annua; Mercurialis annua, 672 h, solo, 187 g ai/ha, post-emergence, greenhouse, 28 DAT",15%
same,% activity,Alopecurus myosuroides,82%
same,% activity,Centaurea cyanus,32%
same,inhibition at 187 g/ha,Matricaria chamomilla,10%
same,% activity 28 DAT,Papaver rhoeas [1]; [10],30%
same,% activity,Matricaria inodora; [11],42%
same,% activity,Matricaria inodora; [7],88%
same,% activity,"Matricaria inodora; Metazachlor 500 g ai/ha solo, 28 DAT",67%
same,% activity,Papaver rhoeas [4]; [11],50%
same,% activity,Papaver rhoeas [4]; [7],55%
same,% activity,"Papaver rhoeas [4]; Metazachlor 375 g ai/ha solo, 72 DAT",53%
same,% activity,"Papaver rhoeas [4]; Metazachlor 375 g ai/ha solo, 78 DAT",55%
same,% activity,Papaver rhoeas [4]; [8],75%
same,% activity 28 DAT,Lamium purpureum; [9],75%
same,% activity 28 DAT,Lamium purpureum; [10],75%
same,inhibition at 187 g/ha,"Lamium purpureum; Lamium purpureum, 672 h, solo, 187 g ai/ha, post-emergence, greenhouse, 28 DAT",75%
CCOCCN(C(=O)CCl)C(=C(C)C)c1ccccc1 [pethoxamid],% activity 28 DAT,Centauria cyanus; pethoxamid 150 g ai/ha solo,0%
same,% activity 28 DAT,Centauria cyanus; pethoxamid 300 g ai/ha solo,25%
same,% activity 28 DAT,Centauria cyanus; pethoxamid 600 g ai/ha solo,30%
same,% activity 28 DAT,"Mercurialis annua; pethoxamid 150 g ai/ha solo, post-emergence",0%
same,% activity 28 DAT,"Mercurialis annua; pethoxamid 300 g ai/ha solo, post-emergence",0%
same,% activity 28 DAT,Mercurialis annua; [12],10%
same,% activity 28 DAT,Papaver rhoeas [1]; [12],25%
